Measured values published in patent US20100105054A1, “GENE EXPRESSION IN DUCHENNE MUSCULAR DYSTROPHY” (CINCINNATI CHILDREN'S HOSPITAL MEDICAL CENTER, priority 2008, published 2010).
“Also recorded” adds a separate entry of the source. Like-named read-outs stand apart in the source and are kept apart here.

What was measured:
[1] = test system: mdx mouse; details: cited from earlier work; for muscle strength: dystrophin deficient mdx mice
[2] = test system: individuals with DMD; details: cited from earlier work; for muscle function and strength in individuals with DMD: humans with DMD
[3] = test system: dystrophin deficient Caenorhabditis elegans; details: dystrophin deficient C. elegans; cited from earlier work
[4] = test system: gene expression in peripheral blood; assay: Whole genome microarray of peripheral whole blood RNA, DMD administered deflazacort vs DMD administered prednisone; format: in vivo, human
Protocol: (§1) Of the 34 individuals with DMD, 14 were administered either prednisone (PRED, n=6) or deflazacort, an oxazoline derivative of prednisolone (DEFL, n=8) at the time blood samples for gene expression evaluation were obtained. The mean duration of administration of either prednisone or deflazacort for these 14 individuals was 43.9 months. Of the 34 individuals with DMD, 20 individuals had not been administered either prednisone or deflazacort at the time blood samples for gene expression evaluation were obtained.
(§2) Sample processing and array hybridization, probe-level data analysis, and statistical analysis were identical to Example 1.

[5] = test system: gene expression in peripheral blood; assay: Whole genome microarray of peripheral whole blood RNA, DMD administered prednisone or deflazacort vs DMD not administered steroid; format: in vivo, human; details: for KFL10 expression: individuals administered prednisone, deflazacort, or both vs DMD not administered any agent; for KFL10 expression / CD163 nucleic acid expression / FKBP5 expression / expression of genes in the chondroitin sulfate biosynthesis pathway / haptoglobin nucleic acid expression / lactotransferrin expression / lipocalin expression: blood; for CD163 nucleic acid expression / FKBP5 expression / expression of genes in the chondroitin sulfate biosynthesis pathway / haptoglobin nucleic acid expression / lactotransferrin expression / lipocalin expression: pooled deflazacort or prednisone group vs DMD not administered; for genes with significantly different expression: pooled group administered either prednisone or deflazacort vs DMD not administered, fold change >|1.5|, unpaired t-test, p<=0.05; for genes with down-regulated expression levels / genes with up-regulated expression levels: pooled prednisone or deflazacort group vs DMD not administered, of the 524 genes
Protocol: Individuals with DMD were evaluated and had been diagnosed by a single board-certified pediatric neurologist. The diagnosis of DMD was based in part upon clinical history, examination findings, and selected muscle biopsies and was confirmed by molecular diagnostic testing.
as §1, §2

[6] = test system: myasthenia gravis; details: compared to prednisone; cited from earlier work
[7] = individuals with DMD administered prednisone, blood
[8] = DMD individuals receiving deflazacort
[9] = deflazacort compared to prednisone, of the 508 genes

SMILES: C[C@]12C=CC(=O)C=C1CC[C@@H]1[C@@H]2C(=O)C[C@@]2(C)[C@H]1CC[C@]2(O)C(=O)CO [prednisone]
- muscle strength [1]: improve muscle strength
- KFL10 expression in the mdx mouse ([1]; following six weeks of prednisone administration): up-regulated
- CD-11 inflammatory cells in mdx muscle [1]: decrease
- muscle function and strength in individuals with DMD [2]: improved muscle function and strength
- muscle function and strength in individuals with DMD ([2]; listed as Prednisone): improve function
- muscle degeneration [3]: reduce muscle degeneration
- interleukin 1 beta expression [4, 7]: up-regulated
- interleukin 1 receptor antagonist expression [4, 7]: up-regulated
- interleukin 6 receptor expression [4, 7]: up-regulated
- expression of genes related to lipid metabolism, particularly in adipose tissue ([4]; prednisone compared to deflazacort, blood): up-regulated
- KFL10 expression [5]: up-regulated
- CD163 nucleic acid expression [5]: up-regulated expression levels
- FKBP5 expression [5]: up-regulated expression levels
- expression of genes in the chondroitin sulfate biosynthesis pathway [5]: up-regulated expression levels
- haptoglobin nucleic acid expression [5]: up-regulated expression levels
- lactotransferrin expression [5]: increased expression levels
- lipocalin expression [5]: increased expression levels
- genes with significantly different expression [5]: 524 genes
- genes with down-regulated expression levels [5]: 127 genes
- genes with up-regulated expression levels [5]: 397 genes

SMILES: Cn1cnc([N+](=O)[O-])c1Sc1ncnc2nc[nH]c12 [azathioprine]
- muscle function and strength in individuals with DMD [2]: does not improve DMD; also recorded: no improvement
- immunosuppressant effectiveness [6]: less effective immunosuppressant

SMILES: CC(=O)OCC(=O)[C@@]12N=C(C)O[C@@H]1C[C@H]1[C@@H]3CCC4=CC(=O)C=C[C@]4(C)[C@H]3[C@@H](O)C[C@@]12C [deflazacort]
- side effects [2, 8]: fewer side effects
- weight gain [2, 8]: less weight gain
- muscle function and strength in individuals with DMD [2]: improved muscle function and strength
- genes significantly different ([4]; DMD administered deflazacort compared to DMD administered prednisone, fold change >=|1.5|, unpaired t-test, p<=0.05, peripheral blood): 508 genes
- changes in gene expression ([4]; deflazacort compared to prednisone): fewer changes in gene expression
- expression of retinoic acid receptor a (RARa) ([4]; deflazacort compared to prednisone, blood): significantly up-regulated
- genes significantly down-regulated [4, 9]: 478 genes
- genes significantly up-regulated [4, 9]: 30 genes
- KFL10 expression [5]: up-regulated
- CD163 nucleic acid expression [5]: up-regulated expression levels
- FKBP5 expression [5]: up-regulated expression levels
- expression of genes in the chondroitin sulfate biosynthesis pathway [5]: up-regulated expression levels
- haptoglobin nucleic acid expression [5]: up-regulated expression levels
- lactotransferrin expression [5]: increased expression levels
- lipocalin expression [5]: increased expression levels
- genes with significantly different expression [5]: 524 genes
- genes with down-regulated expression levels [5]: 127 genes
- genes with up-regulated expression levels [5]: 397 genes

SMILES: C[C@]12C=CC(=O)C=C1CC[C@@H]1[C@@H]2[C@@H](O)C[C@@]2(C)[C@H]1CC[C@]2(O)C(=O)CO [prednisolone]
- muscle strength [1]: improve muscle strength
- CD-11 inflammatory cells in mdx muscle [1]: decrease
- muscle function and strength in individuals with DMD [2]: improve function
- muscle degeneration [3]: reduce muscle degeneration
